Five compounds from patent US8097422B2, “Kir channel modulators” (Salk Institute for Biological Studies, priority 2007, dated 2012) can be followed below.

Numbering of substitutions follows the chain as printed.

Common to all, as to format: cell-based
The target of test [1] is T1, GIRK2 L257A mutant channel (Mus musculus, UniProt P48542, L257A).
T1 construct: expressed in transfected cells; host or cells: HEK293T
T1 sequence (P48542 1-425 L257A): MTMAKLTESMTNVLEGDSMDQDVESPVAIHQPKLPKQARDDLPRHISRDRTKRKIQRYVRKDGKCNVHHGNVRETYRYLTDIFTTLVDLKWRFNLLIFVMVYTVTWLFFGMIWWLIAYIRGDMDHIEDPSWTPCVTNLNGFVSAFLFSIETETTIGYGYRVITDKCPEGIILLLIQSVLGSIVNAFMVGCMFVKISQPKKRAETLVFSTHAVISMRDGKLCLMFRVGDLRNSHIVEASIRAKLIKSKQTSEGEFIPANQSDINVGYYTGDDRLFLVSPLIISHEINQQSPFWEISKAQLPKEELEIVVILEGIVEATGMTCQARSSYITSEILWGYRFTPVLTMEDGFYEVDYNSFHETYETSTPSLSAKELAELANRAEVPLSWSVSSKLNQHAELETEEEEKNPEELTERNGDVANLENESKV
Briefly: whole-cell patch clamp, GIRK2 L257A mutant channel. The note with it: n=9; for activation of GIRK2 L257A, percentage change from basal current: alcohols as for wild type (100 mM). How it is done: (§1) Point mutations were introduced by Quickchange site directed mutagenesis kit (Stratagene). The GIRK2 PIP mutant was generated by overlap-PCR method. […] Mutations were confirmed by automated DNA sequencing methods. […] Cells were plated in a 12 well dish, and were transiently transfected using Lipofectamine 2000 (Invitrogen). After 12-24 hrs, cells were re-plated to 12-mm glass coverslips coated with poly-D-[…] microgram/ml). […] The cells were co-transfected with 0.04 micrograms of eYFP cDNA to identify transfected cells. 0.8 micrograms of Muscarinic Receptor 2 (M2R) was also co-transfected for experiments with Carbachol. […] Whole-cell patch clamp recordings were performed 24-72 hrs after transfection. […] Alcohols, 5 μM Carbachol, and 1 mM BaCl2 (diluted in 20K solution) were applied from outside the cell with the rapid perfusion system (Warner Instruments). […] Current-voltage relationships also were obtained from the ramp protocol. This protocol was used to measure the inwardly rectifying currents at -100 mV and to ensure stability of recording by monitoring a reversal potential and inward rectification. […] Alcohol and Carbachol modulated currents were measured by averaging two consecutive current readings upon reaching steady state, and subtracting the averaged basal current before and after the application of modulator.

Test [2] deals with GIRK2 L257Y mutant channel. Briefly: whole-cell patch clamp, GIRK2 L257Y mutant channel. Particulars: n=9; for activation of GIRK2 L257Y, percentage change from basal current: alcohols as for wild type (100 mM). Here is the method:
as §1
(In general: The patch-clamp technique gives a direct electrical read-out from membranes.)

The target in test [3] is T2, IRK1 L245W mutant channel (Mus musculus, UniProt P35561, L245W).
T2 construct: expressed in transfected cells; host or cells: HEK293 / HEK293T
T2 sequence (P35561 1-428 L245W): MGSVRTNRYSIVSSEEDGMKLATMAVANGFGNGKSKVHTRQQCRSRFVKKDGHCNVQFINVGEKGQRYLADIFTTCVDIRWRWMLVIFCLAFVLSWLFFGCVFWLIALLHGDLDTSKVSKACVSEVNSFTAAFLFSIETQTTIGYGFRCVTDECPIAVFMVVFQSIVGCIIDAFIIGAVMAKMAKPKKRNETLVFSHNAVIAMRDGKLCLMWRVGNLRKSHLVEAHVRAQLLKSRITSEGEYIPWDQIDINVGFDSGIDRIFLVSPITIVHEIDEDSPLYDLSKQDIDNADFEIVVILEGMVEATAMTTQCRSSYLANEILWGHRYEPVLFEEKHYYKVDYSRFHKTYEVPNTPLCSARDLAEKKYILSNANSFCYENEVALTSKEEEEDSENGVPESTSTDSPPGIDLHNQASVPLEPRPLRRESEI
Briefly: whole-cell patch clamp, IRK1 L245W mutant channel. Particulars: equimolar 50 mM alcohol series. Here is the method: as §1

Test [4] concerns the target T3, GIRK2 PIP S148T mutant channel (Mus musculus, UniProt P48542, D228N/I234L/M344L/N231K/S148T).
T3 construct: expressed in transfected cells; host or cells: HEK293 / HEK293T
T3 sequence (P48542 1-425 S148T/D228N/N231K/I234L/M344L): T1 sequence (P48542 1-425 L257A) with S148T, D228N, N231K, I234L, A257L, M344L
The test is described as follows: whole-cell patch clamp, GIRK2 PIP S148T mutant channel. Particulars: 50 mM alcohols. Here is the method: as §1

For test [5], the target named is T4, GIRK4 S143T mutant channel (GIRK4*) (Rattus norvegicus, UniProt P48548, S143T).
T4 construct: expressed in transfected cells; host or cells: HEK293 / HEK293T
T4 sequence (P48548 1-419 S143T): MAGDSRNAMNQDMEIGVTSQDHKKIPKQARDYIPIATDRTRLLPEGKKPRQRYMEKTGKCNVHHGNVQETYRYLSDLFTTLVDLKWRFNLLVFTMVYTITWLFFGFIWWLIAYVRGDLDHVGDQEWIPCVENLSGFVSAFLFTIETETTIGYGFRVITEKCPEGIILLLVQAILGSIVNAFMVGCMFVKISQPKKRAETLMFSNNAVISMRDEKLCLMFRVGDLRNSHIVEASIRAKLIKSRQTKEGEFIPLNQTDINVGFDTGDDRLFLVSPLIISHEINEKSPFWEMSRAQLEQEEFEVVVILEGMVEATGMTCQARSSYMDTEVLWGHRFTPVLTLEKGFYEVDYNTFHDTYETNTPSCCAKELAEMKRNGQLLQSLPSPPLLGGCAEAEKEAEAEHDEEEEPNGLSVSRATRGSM
The test is described as follows: whole-cell patch clamp, GIRK4 S143T (GIRK4*) channel. The note with it: for modulation of GIRK4 S143T mutant channel, mean percentage change from basal: n=7; for activation of GIRK4*, mean percentage change from basal current: wild type GIRK4*, n=8. How it is done:
as §1

Test [6] has as its target T5, GIRK4* L252W mutant channel (Rattus norvegicus, UniProt P48548, L252W/S143T).
T5 construct: expressed in transfected cells; host or cells: HEK293 / HEK293T
T5 sequence (P48548 1-419 S143T/L252W): T4 sequence (P48548 1-419 S143T) with L252W
The test is described as follows: whole-cell patch clamp, GIRK4* L252W mutant channel. Particulars: for modulation of GIRK4* L252W mutant channel, percentage change from basal (negative = inhibition): n=8. Here is the method: as §1

The mark [7] stands for this setting: 5 μM Carbachol, M2R co-transfected.

Consider 1-propanol [1-PrOH], for which, in test [1], the “activation of GIRK2 L257A, percentage change from basal current” value was determined as 467±44%. Further, in test [2], the “activation of GIRK2 L257Y, percentage change from basal current” value came out at 275±34%. In addition, the “inhibition of IRK1 L245W mutant channel, percentage inhibition” value in test [3] was −8±1%. Also, the “inhibition of GIRK2 PIP S148T, percentage inhibition” value in test [4] is recorded as −15±1%. In test [5], the “modulation of GIRK4 S143T mutant channel, mean percentage change from basal” value (shortened to “modulation … mean percentage change from basal”) is given as 51±6% and the “activation of GIRK4*, mean percentage change from basal current” value was found to be 64±7%. Besides, in test [6], the “modulation of GIRK4* L252W mutant channel, percentage change from basal (negative = inhibition)” value is on record as −19±2%.
In the case of `C[N+](C)(C)CCOC(N)=O` [Carbachol], the “Carbachol activated currents, GIRK2 L257A, percentage change from basal current” value in test [1] (setting [7]) is recorded as 36±6%. Besides, in test [2] (setting [7]), the “Carbachol activation, GIRK2 L257Y, percentage change from basal current” value stood at 38±11%. For the same compound, in test [5] (setting [7]), the “Carb activation of GIRK4* wild type, % of basal current” value is reported as 231±38%. The “Carb (G-protein mediated) activation, GIRK4* L252 Trp” value in test [6] (5 μM Carbachol) is on record as 23±3%.
As for 1-butanol [1-BuOH], in test [3], the “inhibition of IRK1 L245W mutant channel, percentage inhibition” value was −20±2%. Further, the “inhibition of GIRK2 PIP S148T, percentage inhibition” value in test [4] was −28±1%. The “modulation … mean percentage change from basal” value in test [5] was determined as 23±3%.
`CCO` [EtOH, ethanol]: the “activation of GIRK2 L257A, percentage change from basal current” value in test [1] was found to be 132±9%. In addition, the “activation of GIRK2 L257Y, percentage change from basal current” value in test [2] is reported as 92±10%. Also, in test [3], the “inhibition of IRK1 L245W mutant channel, percentage inhibition” value is −3±1%. Besides, the “inhibition of GIRK2 PIP S148T, percentage inhibition” value in test [4] is on record as −4±1%. In test [5], the “modulation … mean percentage change from basal” value is recorded as 35±4% and the “activation of GIRK4*, mean percentage change from basal current” value is on record as 36±3%. Also, the “modulation of GIRK4* L252W mutant channel, percentage change from basal (negative = inhibition)” value in test [6] is 5±2%.
For `CC(O)CC(C)(C)O` (racemic) [MPD, 2-methyl-2,4-pentanediol], the “activation of GIRK2 L257A, percentage change from basal current” value in test [1] stood at 330±27%. For the same compound, in test [2], the “activation of GIRK2 L257Y, percentage change from basal current” value is recorded as 73±10%. Besides, the “inhibition of IRK1 L245W mutant channel, percentage inhibition” value in test [3] is given as −27±2%. In addition, the “inhibition of GIRK2 PIP S148T, percentage inhibition” value in test [4] is −36±1%. In test [5], the “modulation … mean percentage change from basal” value worked out at 87±12% and the “activation of GIRK4*, mean percentage change from basal current” value stood at 113±14%.
